Among the test systems are RXF 393; EKVX; HOP-92; UACC-257; OVCAR-3; HCT-116; SK-MEL-2; LOX IMVI; MDA-MB-231; MCF7; MDA-MB-435; SW-620; SR; TK-10; MOLT-4; SK-MEL-5; HL-60; KM12; OVCAR-4; SNB-75.
Holding throughout (experiment): growth of human tumour cells (NCI), 48 h

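Growth conditions: 96-well plates. Treatment: test compound, 48 hours, 5 concentrations. Analysis: linear interpolation between bracketing concentrations; unreached endpoints set to highest concentration. Abbreviation: GI50, concentration required for 50% inhibition of growth.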 Activity calls are given as the source filed them. No stated cut-off is given here; in the data, active = GI50 up to about 1.1 µM and inactive = higher. Some results are limits rather than exact numbers.

In the case of `COc1cc2c(c3oc4c(O)cccc4c(=O)c13)CC(C(C)(O)CO)O2` (configuration not stated), the GI50 is 7.74 µM (inactive) in the assay with RXF 393; > 100 µM (inactive) with EKVX; 37.2 µM (inactive) with HOP-92; > 100 µM (inactive) in the assay with UACC-257; > 100 µM (inactive) with OVCAR-3; 40.6 µM (inactive) in the assay on HCT-116. The GI50 with SK-MEL-2 was 57.4 µM (inactive); in the assay with LOX IMVI, 25 µM (inactive); in the assay on MDA-MB-231 it was 63.7 µM (inactive); in the assay on MCF7 it was 19.5 µM (inactive); in the assay with MDA-MB-435, > 100 µM (inactive); in the assay on SW-620, 47.6 µM (inactive). Besides, the GI50 in the assay with SR is 34.1 µM (inactive); in the assay on TK-10 it was > 100 µM (inactive); in the assay with MOLT-4, 15.7 µM (inactive); with SK-MEL-5, 53 µM (inactive); in the assay with HL-60, 83.2 µM (inactive).
Turning to `CCOC(=O)c1cc(C)n(CN(CCO)Cn2nc(C(=O)OCC)cc2C)n1`, the GI50 with RXF 393 is 19.3 µM (inactive); in the assay with EKVX, 34.2 µM (inactive); in the assay on HOP-92, 24.8 µM (inactive); with UACC-257, 29.2 µM (inactive); in the assay with OVCAR-3 it was 26 µM (inactive); with HCT-116, 18.3 µM (inactive). In addition, the GI50 is 19.9 µM (inactive) in the assay on SK-MEL-2; 27.5 µM (inactive) in the assay with LOX IMVI; 27.9 µM (inactive) with MDA-MB-231; 28.2 µM (inactive) in the assay on MCF7; 39.7 µM (inactive) in the assay on MDA-MB-435; 28.3 µM (inactive) in the assay with SW-620. Besides, the GI50 in the assay with KM12 was 31.6 µM (inactive); in the assay with SR it was 28.6 µM (inactive); in the assay on OVCAR-4, 33.4 µM (inactive); with TK-10, 80.2 µM (inactive); in the assay on MOLT-4, 31.8 µM (inactive); in the assay on SK-MEL-5 it was 37.2 µM (inactive). Moreover, in the assay with HL-60, the GI50 was 34.2 µM (inactive).
For `CC(C)(C)C(=O)OCOP(=O)(OCOC(=O)C(C)(C)C)OCC1OC(n2ccc(=O)[nH]c2=O)C(N=[N+]=[N-])C1O` (configuration not stated), the GI50 is 1.42 µM (inactive) with SNB-75; 2.3 µM (inactive) with RXF 393; 7.59 µM (inactive) in the assay with EKVX; 1.82 µM (inactive) in the assay on HOP-92; 5.37 µM (inactive) with UACC-257; 0.4 µM (active) in the assay with OVCAR-3. The GI50 with HCT-116 was 3.22 µM (inactive); with LOX IMVI, 1.59 µM (inactive); with MDA-MB-231 it was 8.79 µM (inactive); with MCF7 it was 3.81 µM (inactive); in the assay on MDA-MB-435 it was 3.71 µM (inactive); in the assay on SW-620 it was 5.79 µM (inactive). The GI50 with KM12 was 3.11 µM (inactive); in the assay with SR, 2.2 µM (inactive); with OVCAR-4 it was 3.13 µM (inactive); with TK-10 it was 10.5 µM (inactive); in the assay with MOLT-4 it was 4.01 µM (inactive); in the assay with SK-MEL-5 it was 4.9 µM (inactive). Further, the GI50 with HL-60 is 2.14 µM (inactive).
Turning to `COc1cc(OC)c2nc(C)c3c(c2c1)NCC3`, the GI50 in the assay with SNB-75 was 12.4 µM (inactive); with RXF 393, 4.48 µM (inactive); in the assay on HOP-92 it was 13.3 µM (inactive); in the assay with UACC-257, 3.91 µM (inactive); in the assay with OVCAR-3, 10.2 µM (inactive); with HCT-116, 3.47 µM (inactive). The GI50 was 9.42 µM (inactive) with SK-MEL-2; 3.25 µM (inactive) in the assay with LOX IMVI; 7.76 µM (inactive) in the assay on MDA-MB-231; 3.94 µM (inactive) in the assay with MCF7; 10 µM (inactive) with MDA-MB-435; 4.42 µM (inactive) with SW-620. Also, the GI50 is 2.89 µM (inactive) in the assay with SR; 3.63 µM (inactive) with OVCAR-4; 7.91 µM (inactive) in the assay with TK-10; 10 µM (inactive) in the assay on SK-MEL-5; 15.7 µM (inactive) with HL-60.

(Values after ChEMBL document CHEMBL1201862, “PubChem BioAssay data set” (2004).)
